Tests used:
Experiment in all cases: Pre-emergent herbicidal activity (Table A)
Type in all cases: in vivo
Indian Mustard = conditions: Brassica juncea, pre-emergence, Inmu, 11.2 kg/ha, 10-14 days, read-out: herbicidal rating (% inhibition)
In short: (§1)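 Compound incorporated into the cover-soil layer over sown seed at a rate equivalent to 11.2 kg/ha (acetone or water carrier). Greenhouse growth with watering as needed; ratings reflect percent inhibition per species, recorded around day 11 (range 10–14).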

Wild Buckwheat = conditions: Fallopia convolvulus, pre-emergence, Wibw, 11.2 kg/ha, 10-14 days, read-out: herbicidal rating (% inhibition)
In short: as §1

Seedling Johnsongrass = conditions: Sorghum halepense, pre-emergence, Sejg, 11.2 kg/ha, 10-14 days, read-out: herbicidal rating (% inhibition)
In short: as §1

Annual Bluegrass = conditions: pre-emergence, Anbg, 11.2 kg/ha, 10-14 days, read-out: herbicidal rating (% inhibition)
In short: as §1

Morningglory = conditions: Ipomoea, pre-emergence, Mogl, 11.2 kg/ha, 10-14 days, read-out: herbicidal rating (% inhibition)
In short: (§2)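 Seeds or vegetative propagules were set on topsoil compacted to 0.95 to 1.27 cm below the pan rim, then covered with soil thoroughly mixed with a known amount of test compound in acetone or water carrier. Ratings follow a scale of percent inhibition per species.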

Yellow Nutsedge = conditions: Cyperus, pre-emergence, Yens, 11.2 kg/ha, 10-14 days, read-out: herbicidal rating (% inhibition)
In short: as §2

Downy Brome = conditions: Bromus tectorum, pre-emergence, Dobr, 11.2 kg/ha, 10-14 days, read-out: herbicidal rating (% inhibition)
In short: as §2

Cocklebur = conditions: Xanthium strumarium, pre-emergence, Cobu, 11.2 kg/ha, 10-14 days, read-out: herbicidal rating (% inhibition)
In short: as §2

Barnyardgrass = conditions: Echinochloa crus-galli, pre-emergence, Bygr, 11.2 kg/ha, 10-14 days, read-out: herbicidal rating (% inhibition)
In short: as §2

Velvetleaf = conditions: Abutilon theophrasti, pre-emergence, Vele, 11.2 kg/ha, 10-14 days, read-out: herbicidal rating (% inhibition)
In short: as §2

Row | Compound | inhibition at 11200 g/ha (Indian Mustard) | inhibition at 11200 g/ha (Wild Buckwheat) | inhibition at 11200 g/ha (Seedling Johnsongrass) | inhibition at 11200 g/ha (Annual Bluegrass) | inhibition at 11200 g/ha (Morningglory) | inhibition at 11200 g/ha (Yellow Nutsedge) | inhibition at 11200 g/ha (Downy Brome) | inhibition at 11200 g/ha (Cocklebur) | inhibition at 11200 g/ha (Barnyardgrass) | inhibition at 11200 g/ha (Velvetleaf)
1 | COC(=O)c1c(OC)nc(C(F)(F)F)c(C(Cl)=NCCCl)c1CC(C)C [Compound 95, 3-pyridinecarboxylic acid, 5-[(chloro[2-chloroethyl)imino)methyl]-2-methoxy-4-(2-methylpropyl)-6-(trifluoromethyl)-, methyl ester] | 50 to 74% | 75 to 100% | 75 to 100% | 75 to 100% | 0 to 24% | 0 to 24% | 25 to 49% | 0 to 24% | 75 to 100% | 50 to 74%
2 | COC(=O)c1c(OC)nc(C(F)(F)F)c(C=O)c1C1CCC1 [Compound 139, 3-pyridinecarboxylic acid, 4-cyclobuty1-5-formy1-2-methoxy-6-(trifluoromethyl)-, methyl ester] | 75 to 100% | 75 to 100% | 75 to 100% | 75 to 100% | 50 to 74% | 0 to 24% | 75 to 100% | 0 to 24% | 75 to 100% | 75 to 100%
3 | COC(=O)c1c(OC)nc(C(F)(F)F)c(-c2ncco2)c1CC(C)C [Compound 130, 3-pyridinecarboxylic acid, 2-methoxy-4-(2-methylpropyl)-5-(2-oxazolyl)-6-(trifluoromethyl)-, methyl ester] | 75 to 100% | 75 to 100% | 75 to 100% | 75 to 100% | 75 to 100% | 75 to 100% | 75 to 100% | 25 to 49% | 75 to 100% | 75 to 100%

— patent US5391540A, “Substituted pyridine compounds” (Rohm and Haas Company, priority 1993, dated 1995)
